Measurements from ChEMBL document CHEMBL6114956, “Design, synthesis, and evaluation of the pharmacological activity of novel NMDA receptor antagonists based on the germacrone scaffold” (2025).
Activity calls are given as the source filed them. The calls are words filed in the database; no cut-off is given here.

Tests used:
PC-12 [1] = experiment: Neuroprotective activity against NMDA-induced cell injury in rat PC12 cells at 5 uM incubated for 12 hrs by MTT assay relative to control; type: functional
PC-12 [2] = experiment: Neuroprotective activity against NMDA-induced cell injury in rat PC12 cells at 0.5 uM incubated for 12 hrs by MTT assay relative to control; type: functional
PC-12 [3] = experiment: Neuroprotective activity against NMDA-induced cell injury in rat PC12 cells at 0.05 uM incubated for 12 hrs by MTT assay relative to control; type: functional
[4] = biological target: Glutamate NMDA receptor (Rattus norvegicus) (UniProt P35439+Q00959+Q00960+Q00961+Q62645+Q8VHN2+Q9R1M7); experiment: Antagonist activity at NMDAR in rat PC12 cells assessed as inhibition of NMDA-induced Ca2+ influx at 0.05 uM preincubated for 6 hrs followed by NMDA addition measured for 1 to 3 mins by Fluo-4 AM staining based analysis; type: cell-based; conditions: filed as antagonist, time 361-363 min

SMILES | Activity (PC-12 [1]) [%] | Activity (PC-12 [2]) [%] | Activity (PC-12 [3]) [%] | Activity [4]
CC(C)=C1C/C=C(/C)CC/C=C(\C)CC1OC(=O)[C@H](C)NC(=O)c1ccc(Cl)cc1 (stereo not given in full) | 11.25 | 15.27 | 14.06 | 
CC(C)=C1C/C=C(/C)CC/C=C(\C)CC1OC(=O)[C@@H]1CCC2=Nc3ccc(Br)cc3CN21 (stereo not given in full) | 29.37 | 28.02 | 23.62 | 
CC(C)=C1C/C=C(/C)CC/C=C(\C)CC1OC(=O)[C@@H](C)NC(=O)c1ccc(F)cc1 (stereo not given in full) | 12.32 | 9.33 | 13.93 | 
CC(C)=C1C/C=C(/C)CC/C=C(\C)CC1OC(=O)[C@@H](C)NC(=O)c1ccc(O)cc1 (stereo not given in full) | 11.03 | 15.08 | 15.74 | 
CC(C)=C1C/C=C(/C)CC/C=C(\C)CC1OC(=O)[C@H](C)NC(=O)c1ccc(O)cc1 (stereo not given in full) | -2.01 | 10.31 | 12.86 | 
CC(C(O)c1ccc(O)cc1)N1CCC(Cc2ccccc2)CC1 (stereo not given) [IFENPRODIL] | 31.16 | 22.57 | 18.31 | 
CC(C)=C1C/C=C(/C)CC/C=C(\C)CC1OC(=O)[C@@H]1CCC2=Nc3ccc(Cl)cc3CN21 (stereo not given in full) | 25.35 | 28.87 | 28.73 | 
CC(C)=C1C/C=C(/C)CC/C=C(\C)CC1OC(=O)[C@@H]1CCC2=Nc3ccccc3CN21 (stereo not given in full) | 24.42 | 26.17 | 29.63 | Active; Compound Activity Was Superior To Ifenprodil
CC(C)=C1C/C=C(/C)CC/C=C(\C)CC1OC(=O)[C@@H](C)NC(=O)c1ccc(Cl)cc1 (stereo not given in full) | 5.32 | 16.58 | 15.03 | 
CC(C)=C1C/C=C(/C)CC/C=C(\C)CC1=O | -4.79 | 2.94 | 14.66 | Active
CC(C)=C1C/C=C(/C)CC/C=C(\C)CC1OC(=O)[C@H](C)NC(=O)c1ccc(F)cc1 (stereo not given in full) | 16.47 | 12.7 | 15.35 | 
